{
  "source": "PubChem BioAssay AID2823",
  "about": "(Broad Institute, 2010)",
  "target": "RanGTP-importin-beta complex (human Ran / KPNB1)",
  "assay": "Ran–importin-beta interaction inhibitors, confirmation, biochemical, FRET, CFP/YFP, cell-free homogeneous (AID 2823)",
  "conditions": "CFP-Ran/YFP-importin-beta FRET ratio",
  "note": "The source made the active and inactive calls. No rule for the calls is given here.",
  "data": [
    {"smiles": "COc1ccc(NC(=O)N2CCCCCC2)cc1", "values": [
      {"measurement": "IC50", "value": "> 50 µM (inactive)"}
    ]},
    {"smiles": "CCC(=O)Nc1cccc(NC(=S)NC(=O)c2cccs2)c1", "values": [
      {"measurement": "IC50", "value": "> 50 µM (inactive)"}
    ]},
    {"smiles": "CSc1nsc(/C=C/Nc2ccc(C)cc2)c1C#N", "values": [
      {"measurement": "IC50", "value": "> 50 µM (inactive)"}
    ]},
    {"smiles": "CCCOc1ccc(C2C(C(=O)OC)=CN(CCOC)C=C2C(=O)OC)cc1", "values": [
      {"measurement": "IC50", "value": 12.3, "unit": "µM"}
    ]},
    {"smiles": "CC1Cc2cc(S(=O)(=O)NCc3ccccc3)ccc2N1C(=O)C1CC1", "note": "(stereo not given)", "values": [
      {"measurement": "IC50", "value": "> 50 µM (inactive)"}
    ]},
    {"smiles": "CC(CC(F)(F)F)N1CCC(n2nccc2NC(=O)CCOc2ccccc2)CC1", "note": "(stereo not given)", "values": [
      {"measurement": "IC50", "value": "> 50 µM (inactive)"}
    ]},
    {"smiles": "Nc1c(C(=O)OC2CCCCC2)c2nc3ccccc3nc2n1CC1CCCO1", "note": "(stereo not given)", "values": [
      {"measurement": "IC50", "value": 27.1, "unit": "µM"}
    ]},
    {"smiles": "C=CCn1c(SCCOc2ccc(OC)cc2)nnc1C(CO)NC(=O)c1ccc(OC)cc1", "note": "(stereo not given)", "values": [
      {"measurement": "IC50", "value": "> 50 µM (inactive)"}
    ]},
    {"smiles": "CC(=O)Nc1cccc(C(=O)N/N=C/c2ccc(F)cc2)c1", "values": [
      {"measurement": "IC50", "value": "> 50 µM (inactive)"}
    ]},
    {"smiles": "Cc1ccc2nc(NCCNC(=O)c3ccccc3)c(C#N)cc2c1", "values": [
      {"measurement": "IC50", "value": 3.62, "unit": "µM"}
    ]}
  ]
}
